Reference: patent publication US20030013658A1, “Small peptides and methods for treatment of asthma and inflammation” (Hisatek, LLC, priority 1997, published 2003)
“Also recorded” adds a separate entry of the source. Where no end group is shown, it is not given here. The star is where a group is joined. For = O=C*

Test system: OVA-sensitized/challenged mice
Assay: OVA allergen-induced airway inflammation mouse model, 28-day protocol, HK-X i.n. before each challenge
Type: in vivo
Excerpt: The above-described murine model reproduces key features of human asthma. Late-phase allergen-specific pulmonary disease was induced in normal BALB/c mice using ovalbumin (OVA) as allergen. One protocol includes immunization of mice with i.p. OVA on […] and 14, and intranasal (i.n.) administration of OVA on days 14, 25, 26, and 27.
In a mouse model of allergen-induced airway inflammation, the role of mast cell in airway eosinophil infiltration, mucus release, and hyper-responsiveness to methacholine was examined.
Materials were used as described above. Mice received an i.p. injection of 0.2 ml (100 ug) of OVA complexed with aluminum potassium sulfate (alum) on day 0 and 14. On days 14, 25, 26, and 27, mice were anesthetized with 0.2 ml i.p. of ketamine (0.44 mg/ml)/xylazine (6.3 mg/ml) in normal saline before receiving an intranasal (i.n.) dose of 100 ug OVA in 0.05 ml normal saline on days 25, 26, and 27. Lung tissue was obtained 24 hours after the last i.n. challenge on day 28. The control group received normal saline with alum i.p. on days 0 and 14 and normal saline without alum i.n. on days 14, 25, 26, and 27. To assess the effect of HK-X inhibition on OVA induced asthma, HK-X (10 ug/ml) was given i.n. 30 minutes before each i.n challenge on days 25, 26, and 27.
After tying off the left lung at the mainstem bronchus, the right lung was […] three times with 0.4 ml of normal saline, Bronchoalveolar lavage (BAL) fluid cells from a 0.05 ml aliquot of the pooled sample were counted using a hemocytometer and the remaining fluid centrifuged at 4° C. for 10 minutes at 200 g. After resuspension of the cell pellet in normal saline containing 10% BSA, BAL cell smears were made on glass slides. To stain eosinophils, dried slides were stained with Discombe's diluting fluid (0.05% aqueous eosin and 5% (v/v) acetone in distilled water) for 5-8 minutes, rinsed with water for 0.5 minutes and counterstained with 0.07 methylene blue for 2 minutes.
Following BAL, the trachea and left lung (upper and lower lobes) were obtained and fixed in 10% buffered formalin solution at 20° C. for1S hours. After the tissues were processed and embeded in paraffin, the tissues were cut into 5 μm sections and stained with Discombe's solution and counterstained with methylene blue as described above or stained with Hematoxylin and eosin. The eosinophil number per unit airway area (2200 μm^2) was determined by morphometry as previously described. Airway mucus was identified by a variety of staining methods, i.e., methylene blue, Hematoxylin and eosin, mucicarmine, toluidine blue, alcian blue, and alcian blue/periodic acid Schiff (PAS) reaction. Mucin was stained with mucicarmine solution; metanil yellow counterstain was employed. Mucin and sialic acid-rich non-sulfated mucosubstances were stained metachromatically with toluidine blue, pH 4.5. Acidic mucin and sulfated mucosubstances were stained with alcian blue, pH 2.5; nuclear fast red counterstain was used. Neutral and acidic mucosubstances were identified by alcian blue, pH 2.5 and PAS reaction. The degree of mucus plugging of the airways (0.5˜0.8 mm in diameter) also was assessed by morphometry. The percent occlusion of airway diameter by mucus was classified on a semiquantitative scale from 0 to +++++. The histologic and morphometric analyses protocol design were performed by individuals blinded to the protocol design.
Mucus glycoproteins in BAL fluid were assayed by slot blotting and PAS staining as described. Nitrocellulose membranes (0.2 um pore size; Schleicher & Schuell, Keene, N.H.) were wetted in distilled water and then in normal saline before placement in a Minifold II 72-well slot blot apparatus (Schleicher & Schuell). The BAL fluid samples (0.05 ml) and aliquots (0.05-0.75 ml) of a stock solution (2 ug/ml) of human respiratory mucin glycoprotein were blotted onto the nitrocellulose membranes by water suction vacuum, and mucus glycoproteins were visualized by PAS reaction. […]

Substance: f-Met-Leu-Phe-Phe (For-MLFF) [Example 9]
- cellular infiltration during asthmatic attack (10 μg HK-X intranasally 30 minutes prior to challenge, FIG. 9): reduces the cellular infiltration
- eosinophil influx into lung tissue and BAL fluid (HK-X 10 ug/ml i.n. 30 minutes before each i.n. challenge, day 28): markedly reduced eosinophil influx into the lung tissue and BAL fluid
- airway mucus release / secretion (HK-X i.n. 30 minutes before each OVA challenge days 25, 26, 27, histopathology, listed as HK-X): prevented airway mucus release; also recorded: blocked the airway mucus release; also recorded: prevents the airway mucus secretion; also recorded: reduces the mucus secretion in airways
- number of eosinophils in the BAL fluid (OVA-sensitized/challenged mice treated with HK-X, in ×10^5 cells): 0.57+0.11 ×10^5
- mucus cell induction by OVA immunization and challenge (alcian blue histochemistry, FIG. 10): prevents the mucus cell induction by OVA immunization and challenge
- reduction of eosinophil influx into the lung interstitium (morphometric analysis, p<0.006 compared to OVA without HK-X, FIG. 11): 90%
